In patent US5422341A, “Motilin-like polypeptides with gastrointestinal motor stimulating activity” (Ohmeda Pharmaceutical Products Division Inc., priority 1993, dated 1995):
Like-named read-outs stand apart in the source and are kept apart here. Square brackets hold non-standard residues; d marks the D form. Ends that are not written are not given here. Peptide text beside a SMILES is read from it. * marks the point of attachment. X1 = C[N+](C)(C)[C@@H](Cc1ccccc1)C(=O)*; NMe2Phe = CN(C)[C@@H](Cc1ccccc1)C(=O)*; NMeF = CN[C@@H](Cc1ccccc1)C(=O)O

How the values were obtained:
[1] = tested on: canine gastrointestinal tract; assay: Contractile activity in the canine gastrointestinal tract; type: in vivo, dog; conditions: anesthetized dogs, intra-arterial injection to a duodenal segment; amount giving 50% of the calibration response to field stimulation
Procedure: Mongrel dogs of either sex were anesthetized with sodium pentobarbital 65 mg/kg intravenously. A mid-line incision was made in the abdomen. A duodenal segment was located, the terminal arteries to that segment were identified, and the closest possible artery of the appropriate size was rubbed clean of fat and fascia. A needle of suitable diameter was bent at an angle and the tip inserted in the cleaned artery. The needle was held in position in the artery for approximately 30 seconds until vascular spasm has relaxed and then a catheter assembly was inserted into the artery and tied into position with 000 silk sutures. The fine polyethylene catheter (10-15 cm) was cut to a point at one end with a needle inserted at the other end. The hub of the needle was fitted with a 3-way stopcock and the catheter assembly was filled with heparinized Krebs Ringer bicarbonate containing 10 mM glucose. A bolus of Krebs (free of air) was injected into the arterial catheter and the distribution of blanching in the segment noted. If the area was too large, collateral arteries may be tied off as long as circulation to the area was maintained. A Bass type strain gauge was then sutured to the serosa, and oriented so that circular muscle contractions can be recorded on a Beckman R611 dynograph. Silver wire electrodes were inserted subserosally on either side of the strain gauge and were connected through stimulus isolation units to a Grass S88 electrical stimulator. Electrical field stimulation was applied at 40 V 0.5 ms and 5 pps and the amplitude of the pen recorder was set to contain the contractile response.
All peptides to be injected were dissolved in Krebs and serial dilutions were prepared so that for any concentration the maximum volume to be injected was 1 ml. All solutions except stock Krebs were held on ice for the day of the experiment and discarded at the end of the day. For determination of a dose-response curve, the site was first injected with a bolus of approximately 1 ml of heparinized Krebs to provide a flush control. Peptide agonists (in volumes of 1 ml flushed with 1 ml of Krebs) were injected in logarithmic increments until a response which was maximal in amplitude was obtained. The injection site was then flushed with Krebs containing 0.1% BSA to displace any peptide remaining in the arterial line. For peptides acting at the motilin receptor, care was taken not to inject supramaximal doses as these will induce tachyphylaxis. Therefore, as responses become apparent, 0.3 or 0.5 log unit increments were used. A site was used for a dose-response determination only every 1/2 to 1 hour.
The amplitude of the calibration response to field stimulation in each site was measured and used as 100% for that site. The amplitude of the response to the agonist at each dose was determined, calculated as a % of the calibration response and plotted against the concentration. The ED50 of the response represents the amount of agonist required to produce a response which was 50% of the calibration response.

[2] = type: in vitro ADME, hog; conditions: pH 7
Procedure: Like most small linear polypeptides, motilin is believed to be metabolized lo by the brush border cells of the kidney. Therefore, kidney homogenate was chosen as the model system for assessing the relative in vivo biostability of the peptides of this invention. All peptides to be studied were incubated in hog kidney (Pel Freeze, Inc., Rogers, Ark.) (2% w/v; final volume=4 ml; buffer=HEPES pH 7.0) at 25° C. Both initial substrate concentration and internal standard (Fmoc-Gly) concentration were 0.5 mg/ml. In order to determine suitable incubation times and sampling intervals, two experiments were conducted with each polypeptide. The first run served as a rough estimate of peptide stability. All sampling was performed in duplicate. Sample volume was 180 μl.
Sample clean-up was performed by addition of 20 μl of 100% TCA (final volume=200 μl; final TCA concentration=10%). The sample was vortexed for from 5 to 10 seconds to ensure equilibration, then centrifuged to spin out the precipitated proteins. Analysis was carried out on a Waters HPLC system with a WISP autoinjector, a 5μ Vydac C-18 analytical column, and a Waters 481 UV detector set at 214 nm. Injection volume was 80 μl. Initial solvent conditions were […] in Milli-Q water with a 35 minute gradient running to 63% acetonitrile/37% (0.1%) TFA at 1 ml/min.
Polypeptide substrate and metabolite peaks were ratioed to the internal standard and the duplicate sample ratios were averaged. The avenge ratio for the peptide substrate was expressed as a percentage and plotted versus time. First-order kinetics was assumed for data treatment. The rate of disappearance of the substrate was calculated using the Enzfitter program (Biosoft). Relative half-lives were determined from the relationship: […]

[3] = molecular target: segments of rabbit duodenum (Oryctolagus cuniculus, UniProt G1T803); assay: Rabbit duodenal smooth muscle strip tissue bath assay; type: cell-based; conditions: negative logarithm of the dose giving 50% of the maximal response to motilin; isotonic contraction of rabbit duodenum segments
segments of rabbit duodenum, sequence (G1T803 1-400): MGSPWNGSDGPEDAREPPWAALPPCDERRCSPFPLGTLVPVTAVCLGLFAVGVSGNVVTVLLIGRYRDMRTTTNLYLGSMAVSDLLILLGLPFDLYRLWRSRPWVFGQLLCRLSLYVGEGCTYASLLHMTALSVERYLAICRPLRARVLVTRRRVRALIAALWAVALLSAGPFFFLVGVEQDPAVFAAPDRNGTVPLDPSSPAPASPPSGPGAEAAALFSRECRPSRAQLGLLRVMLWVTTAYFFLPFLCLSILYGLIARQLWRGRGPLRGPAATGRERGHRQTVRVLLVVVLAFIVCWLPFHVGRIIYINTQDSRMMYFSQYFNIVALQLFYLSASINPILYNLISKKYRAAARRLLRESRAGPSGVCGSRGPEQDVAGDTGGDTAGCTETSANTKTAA
Summary of the method: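 Isotonic contraction of rabbit duodenal segments after 1 h equilibration and 10^-4 M acetylcholine challenge; cumulative compound curve over 10^-11 to 10^-4 M, then 10^-7 M motilin. Runs discarded if final acetylcholine response differed >5%. EC50 at 50% of maximal motilin response, reported as pEC50.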

motilin receptor = molecular target: T1, motilin receptor (Oryctolagus cuniculus, UniProt G1T803); assay: Determination of motilin receptor binding affinity (displacement of [125I-Tyr7, Nle13]motilin(porcine)); parameters: species or system rabbit
T1 construct: from tissue; host or cells: rabbit antral smooth muscle membranes
T1 sequence (G1T803 1-400): as above
Procedure: The motilin receptor binding affinity of the peptides of this invention was determined by using the general procedure of Bormans, Peelers and Vantrappen, Regul. […] Fitting was performed using the iterative least-squares procedure of the SAS-software package (SAS Institute, Inc., Cary, N.C., USA).

[4] = negative logarithm of the concentration displacing 50% of [125I-Tyr7, Nle13]motilin(porcine) from rabbit antral smooth muscle membranes, read-out: pIC50 (converted)

Molecule: CC[C@H](C)[C@H](NC(=O)[C@@H]1CCCN1C(=O)[C@@H](NC(=O)[C@H](Cc1ccccc1)NC)C(C)C)C(=O)N[C@@H](Cc1ccccc1)C(=O)N[C@H](C(=O)N[C@@H](Cc1ccc(O)cc1)C(=O)NCC(=O)N[C@@H](CCC(=O)O)C(=O)N[C@@H](CC(C)C)C(=O)N[C@@H](CCC(N)=O)C(=O)N[C@@H](CCCNC(=N)N)C(=O)N[C@@H](CC(C)C)C(=O)N[C@@H](CCCCN)C(N)=O)[C@@H](C)O (H-[NMeF]VPIFTYGELQRLK-NH2)
- ED50 [1]: 0.025 nmol
- T1/2 [2]: 20
- pEC50 [3]: 7.74
- IC50 (motilin receptor; [4]): 0.479 nM

Molecule: CC[C@H](C)[C@H](NC(=O)[C@@H]1CCCN1C(=O)[C@@H](NC(=O)[C@H](Cc1ccccc1)[N+](C)(C)C)C(C)C)C(=O)N[C@@H](Cc1ccccc1)C(=O)N[C@H](C(=O)N[C@@H](Cc1ccc(O)cc1)C(=O)NCC(=O)N[C@@H](CCC(=O)O)C(=O)N[C@@H](CC(C)C)C(=O)N[C@@H](CCC(N)=O)C(=O)N[C@H](CCCNC(=N)N)C(=O)N[C@@H](CC(C)C)C(=O)N[C@@H](CCCCN)C(N)=O)[C@@H](C)O (X1-VPIFTYGELQ[dR]LK-NH2)
- ED50 [1]: 0.15 nmol
- T1/2 [2]: 162
- pEC50 [3]: 7.60
- IC50 (motilin receptor; [4]): 1.17 nM

Molecule: CC[C@H](C)[C@H](NC(=O)[C@@H]1CCCN1C(=O)[C@@H](NC(=O)[C@@H](N)Cc1ccccc1)C(C)C)C(=O)N[C@@H](Cc1ccccc1)C(=O)N[C@H](C(=O)N[C@@H](Cc1ccc(O)cc1)C(=O)NCC(=O)N[C@@H](CCC(=O)O)C(=O)N[C@@H](CC(C)C)C(=O)N[C@@H](CCC(N)=O)C(=O)N[C@@H](CCCNC(=N)N)C(=O)N[C@@H](CC(C)C)C(=O)N[C@@H](CCC(N)=O)C(=O)N[C@@H](CCC(=O)O)C(=O)N[C@@H](CCCCN)C(=O)N[C@@H](CCC(=O)O)C(=O)N[C@@H](CCCNC(=N)N)C(=O)N[C@@H](CC(N)=O)C(=O)N[C@@H](CCCCN)C(=O)NCC(=O)N[C@@H](CCC(N)=O)C(=O)O)[C@@H](C)O [[Leu^13]pMOT(1-22), reference compound]
- ED50 [1]: 0.17 nmol
- T1/2 [2]: 30.2
- pEC50 [3]: 8.13
- IC50 (motilin receptor; pIC50, negative logarithm of the concentration displacing 50% of [125I-Tyr7, Nle13]motilin(porcine) from rabbit antral smooth muscle membranes): 0.661 nM

Molecule: CC[C@H](C)[C@H](NC(=O)[C@@H]1CCCN1C(=O)[C@@H](NC(=O)[C@H](Cc1ccccc1)NC)C(C)C)C(=O)N[C@@H](Cc1ccccc1)C(=O)N[C@H](C(=O)N[C@@H](Cc1ccc(O)cc1)C(=O)NCC(=O)N[C@@H](CCC(=O)O)C(=O)N[C@@H](CC(C)C)C(=O)N[C@@H](CCC(N)=O)C(=O)N[C@H](CCCNC(=N)N)C(=O)N[C@@H](CC(C)C)C(=O)N[C@@H](CCC(N)=O)C(=O)O)[C@@H](C)O [[N-MePhe^1, D-Arg^12, Leu^13]pMOT(1-14)] (H-[NMeF]VPIFTYGELQ[dR]LQ-OH)
- ED50 [1]: 0.40 nmol
- T1/2 [2]: 30
- pEC50 [3]: 7.71
- IC50 (motilin receptor; [4]): 1.91 nM

Molecule: CC[C@H](C)[C@H](NC(=O)[C@@H]1CCCN1C(=O)[C@@H](NC(=O)[C@H](Cc1ccccc1)N(C)C)C(C)C)C(=O)N[C@@H](Cc1ccccc1)C(=O)N[C@H](C(=O)N[C@@H](Cc1ccc(O)cc1)C(=O)NCC(=O)N[C@@H](CCC(=O)O)C(=O)N[C@@H](CC(C)C)C(=O)N[C@@H](C)C(=O)N[C@H](CCCNC(=N)N)C(=O)N[C@@H](CC(C)C)C(=O)N[C@H](CCCCN)C(N)=O)[C@@H](C)O (NMe2Phe-VPIFTYGELA[dR]L[dK]-NH2)
- ED50 [1]: 0.35 nmol
- T1/2 [2]: 47
- pEC50 [3]: 7.69
- IC50 (motilin receptor; [4]): 1.45 nM

Molecule: CC[C@H](C)[C@H](NC(=O)[C@@H]1CCCN1C(=O)[C@@H](NC(=O)[C@H](Cc1ccccc1)NC)C(C)C)C(=O)N[C@@H](Cc1ccccc1)C(=O)N[C@H](C(=O)N[C@@H](Cc1ccc(O)cc1)C(=O)NCC(=O)N[C@@H](CCC(=O)O)C(=O)N[C@@H](CC(C)C)C(=O)N[C@@H](C)C(=O)N[C@H](CCCNC(=N)N)C(=O)N[C@@H](CC(C)C)C(=O)N[C@@H](CCCCN)C(N)=O)[C@@H](C)O (H-[NMeF]VPIFTYGELA[dR]LK-NH2)
- ED50 [1]: 0.30 nmol
- T1/2 [2]: 34.3
- pEC50 [3]: 8.01
- IC50 (motilin receptor; [4]): 0.468 nM

Molecule: FVPIFTYGELQRLQ [[Leu^13]pMOT(1-14), reference compound]
- ED50 [1]: 20.4 nmol
- T1/2 [2]: 7.5
- pEC50 [3]: 7.55
- IC50 (motilin receptor; [4]): 4.37 nM

Molecule: CC[C@H](C)[C@H](NC(=O)[C@@H]1CCCN1C(=O)[C@@H](NC(=O)[C@H](Cc1ccccc1)[N+](C)(C)C)C(C)C)C(=O)N[C@@H](Cc1ccccc1)C(=O)N[C@H](C(=O)N[C@@H](Cc1ccc(O)cc1)C(=O)NCC(=O)N[C@@H](CCC(=O)O)C(=O)N[C@@H](CC(C)C)C(=O)N[C@@H](C)C(=O)N[C@H](CCCNC(=N)N)C(=O)N[C@@H](CC(C)C)C(=O)N[C@@H](CCCCN)C(N)=O)[C@@H](C)O (X1-VPIFTYGELA[dR]LK-NH2)
- ED50 [1]: 0.12 nmol
- T1/2 [2]: 125
- pEC50 [3]: 7.64
- IC50 (motilin receptor; [4]): 1.29 nM

Molecule: CC[C@H](C)[C@H](NC(=O)[C@@H]1CCCN1C(=O)[C@@H](NC(=O)[C@H](Cc1ccccc1)NC)C(C)C)C(=O)N[C@@H](Cc1ccccc1)C(=O)N[C@H](C(=O)N[C@@H](Cc1ccc(O)cc1)C(=O)NCC(=O)N[C@@H](CCC(=O)O)C(=O)N[C@@H](CC(C)C)C(=O)N[C@@H](C)C(=O)N[C@H](CCCNC(=N)N)C(=O)N[C@@H](CC(C)C)C(=O)N[C@H](CCC(N)=O)C(N)=O)[C@@H](C)O (H-[NMeF]VPIFTYGELA[dR]L[dQ]-NH2)
- ED50 [1]: 0.40 nmol
- T1/2 [2]: 32.6
- pEC50 [3]: 7.97
- IC50 (motilin receptor; [4]): 0.851 nM

Molecule: CC[C@H](C)[C@H](NC(=O)[C@@H]1CCCN1C(=O)[C@@H](NC(=O)[C@H](Cc1ccccc1)[N+](C)(C)C)C(C)C)C(=O)N[C@@H](Cc1ccccc1)C(=O)N[C@H](C(=O)N[C@@H](Cc1ccc(O)cc1)C(=O)NCC(=O)N[C@@H](CCC(=O)O)C(=O)N[C@@H](CC(C)C)C(=O)N[C@@H](CCC(N)=O)C(=O)N[C@H](CCCNC(=N)N)C(=O)N[C@@H](CC(C)C)C(=O)N[C@@H](CCC(N)=O)C(N)=O)[C@@H](C)O (X1-VPIFTYGELQ[dR]LQ-NH2)
- ED50 [1]: 0.017 nmol
- T1/2 [2]: 95
